The NIST ThermoML archive (doi:10.1016/j.jct.2013.08.013)
± gives the expanded uncertainty stated by the source.

Tests used:
[1] = xn = mol fraction of the nth substance listed; details: 101 kPa, Liquid; for speed of sound: Frequency=2 MHz, Linear variable-path acoustic interferometer; for mass density: Vibrating tube method
[2] = 101 kPa, Liquid; for speed of sound: Frequency=2 MHz, Linear variable-path acoustic interferometer; for mass density: Vibrating tube method

Cc1ccccc1Cl [2-chlorotoluene] + CCCCO
[1]
Details | mass density, 298.15 K [kg/m3] | mass density, 303.15 K [kg/m3] | mass density, 308.15 K [kg/m3] | speed of sound, 298.15 K [m/s] | speed of sound, 303.15 K [m/s] | speed of sound, 308.15 K [m/s]
x1 = 0.0914 | 837.37 ± 0.17 | 833.28 ± 0.17 | 829.2 ± 0.17 | 1247.4 ± 1.8 | 1231.4 ± 1.8 | 1213.3 ± 1.8
x1 = 0.2026 | 873.25 ± 0.16 | 868.95 ± 0.17 | 864.69 ± 0.17 | 1255.5 ± 1.9 | 1238.2 ± 1.8 | 1219.2 ± 1.8
x1 = 0.2888 | 899.51 ± 0.16 | 895.11 ± 0.16 | 890.72 ± 0.16 | 1260.1 ± 1.9 | 1241.1 ± 1.9 | 1222.2 ± 1.8
x1 = 0.3958 | 930.38 ± 0.15 | 925.85 ± 0.15 | 921.35 ± 0.16 | 1264.2 ± 1.9 | 1244.1 ± 1.9 | 1224.3 ± 1.8
x1 = 0.4973 | 958.03 ± 0.15 | 953.44 ± 0.15 | 948.87 ± 0.15 | 1267.1 ± 1.9 | 1246 ± 1.9 | 1226 ± 1.8
x1 = 0.6021 | 985.11 ± 0.14 | 980.47 ± 0.14 | 975.89 ± 0.14 | 1269 ± 1.9 | 1249.2 ± 1.9 | 1227.4 ± 1.9
x1 = 0.6969 | 1008.43 ± 0.14 | 1003.83 ± 0.14 | 999.22 ± 0.14 | 1271.4 ± 1.9 | 1250.4 ± 1.9 | 1231 ± 1.8
x1 = 0.7892 | 1030.29 ± 0.15 | 1025.68 ± 0.14 | 1021.07 ± 0.14 | 1276.7 ± 1.9 | 1255.4 ± 1.9 | 1236.4 ± 1.8
x1 = 0.894 | 1054.17 ± 0.15 | 1049.55 ± 0.15 | 1044.94 ± 0.15 | 1285.6 ± 1.9 | 1266.4 ± 1.9 | 1247 ± 1.9
x1 = 1 | 1077.38 ± 0.15 | 1072.8 ± 0.15 | 1068.21 ± 0.15 | 1299.8 ± 1.9 | 1283.6 ± 1.9 | 1265.6 ± 1.9

Cc1ccccc1Cl [2-chlorotoluene] + CCCO
[1]
Details | mass density, 298.15 K [kg/m3] | mass density, 303.15 K [kg/m3] | mass density, 308.15 K [kg/m3] | speed of sound, 298.15 K [m/s] | speed of sound, 303.15 K [m/s] | speed of sound, 308.15 K [m/s]
x1 = 0.089 | 837.16 ± 0.18 | 832.98 ± 0.18 | 828.75 ± 0.18 | 1219 ± 1.8 | 1200.1 ± 1.8 | 1181.4 ± 1.8
x1 = 0.1947 | 877.01 ± 0.17 | 872.53 ± 0.17 | 868.14 ± 0.17 | 1232 ± 1.8 | 1212.4 ± 1.8 | 1192.8 ± 1.8
x1 = 0.2938 | 910.41 ± 0.16 | 905.71 ± 0.16 | 901.22 ± 0.16 | 1242.5 ± 1.9 | 1221.5 ± 1.8 | 1201.9 ± 1.8
x1 = 0.3841 | 937.91 ± 0.15 | 933.15 ± 0.15 | 928.51 ± 0.16 | 1249.2 ± 1.9 | 1228.7 ± 1.9 | 1207.8 ± 1.8
x1 = 0.4898 | 967.13 ± 0.14 | 962.37 ± 0.15 | 957.66 ± 0.15 | 1257 ± 1.9 | 1234.8 ± 1.9 | 1213.9 ± 1.8
x1 = 0.5918 | 992.79 ± 0.14 | 988 ± 0.14 | 983.25 ± 0.14 | 1262.5 ± 1.9 | 1240.5 ± 1.9 | 1219.2 ± 1.8
x1 = 0.6979 | 1017.16 ± 0.14 | 1012.42 ± 0.14 | 1007.7 ± 0.14 | 1269 ± 1.9 | 1246.3 ± 1.9 | 1225.2 ± 1.8
x1 = 0.7955 | 1037.96 ± 0.15 | 1033.25 ± 0.15 | 1028.56 ± 0.15 | 1275.3 ± 1.9 | 1253.4 ± 1.9 | 1234 ± 1.8
x1 = 0.8932 | 1057.42 ± 0.15 | 1052.78 ± 0.15 | 1048.12 ± 0.15 | 1284.4 ± 1.9 | 1264.7 ± 1.9 | 1245.4 ± 1.9
x1 = 1 | 1077.38 ± 0.15 | 1072.8 ± 0.15 | 1068.21 ± 0.15 | 1299.8 ± 1.9 | 1283.6 ± 1.9 | 1265.6 ± 1.9

CCCCO [butan-1-ol]
[2]
Details | mass density [kg/m3] | speed of sound [m/s]
298.15 K | 805.95 ± 0.16 | 1238.9 ± 1.8
303.15 K | 802.11 ± 0.17 | 1223.4 ± 1.8
308.15 K | 798.24 ± 0.17 | 1206.8 ± 1.8

CCCCO [butan-1-ol] + Cc1ccccc1Cl
[1], x2 = 0
Details | mass density [kg/m3] | speed of sound [m/s]
298.15 K | 805.95 ± 0.16 | 1238.9 ± 1.8
303.15 K | 802.11 ± 0.17 | 1223.4 ± 1.8
308.15 K | 798.24 ± 0.17 | 1206.8 ± 1.8

CCCCCCCO [heptan-1-ol]
[2]
Details | mass density [kg/m3] | speed of sound [m/s]
298.15 K | 818.79 ± 0.16 | 1326.5 ± 1.9
303.15 K | 815.21 ± 0.16 | 1313.6 ± 1.9
308.15 K | 811.62 ± 0.16 | 1293.1 ± 1.9

CCCCCCCO [heptan-1-ol] + Cc1ccccc1Cl
[1], x2 = 0
Details | mass density [kg/m3] | speed of sound [m/s]
298.15 K | 818.79 ± 0.16 | 1326.5 ± 1.9
303.15 K | 815.21 ± 0.16 | 1313.6 ± 1.9
308.15 K | 811.62 ± 0.16 | 1293.1 ± 1.9

CCCCCCO [hexan-1-ol]
[2]
Details | mass density [kg/m3] | speed of sound [m/s]
298.15 K | 815.31 ± 0.4 | 1303.2 ± 2.4
303.15 K | 811.7 ± 0.4 | 1286.4 ± 2.4
308.15 K | 808.06 ± 0.4 | 1269.7 ± 2.3

CCCCCCO [hexan-1-ol] + Cc1ccccc1Cl
[1], x2 = 0
Details | mass density [kg/m3] | speed of sound [m/s]
298.15 K | 815.31 ± 0.4 | 1303.2 ± 2.4
303.15 K | 811.7 ± 0.4 | 1286.4 ± 2.4
308.15 K | 808.06 ± 0.4 | 1269.7 ± 2.3

CCCCCO [pentan-1-ol]
[2]
Details | mass density [kg/m3] | speed of sound [m/s]
298.15 K | 810.82 ± 0.24 | 1276.2 ± 2.1
303.15 K | 807.1 ± 0.24 | 1259.5 ± 2
308.15 K | 803.38 ± 0.24 | 1248.1 ± 2

CCCCCO [pentan-1-ol] + Cc1ccccc1Cl
[1], x2 = 0
Details | mass density [kg/m3] | speed of sound [m/s]
298.15 K | 810.82 ± 0.24 | 1276.2 ± 2.1
303.15 K | 807.1 ± 0.24 | 1259.5 ± 2
308.15 K | 803.38 ± 0.24 | 1248.1 ± 2

CCCO [propan-1-ol]
[2]
Details | mass density [kg/m3] | speed of sound [m/s]
298.15 K | 799.65 ± 0.17 | 1206.5 ± 1.8
303.15 K | 795.65 ± 0.17 | 1188.6 ± 1.8
308.15 K | 791.65 ± 0.17 | 1171.8 ± 1.8

CCCO [propan-1-ol] + Cc1ccccc1Cl
[1], x2 = 0
Details | mass density [kg/m3] | speed of sound [m/s]
298.15 K | 799.65 ± 0.17 | 1206.5 ± 1.8
303.15 K | 795.65 ± 0.17 | 1188.6 ± 1.8
308.15 K | 791.65 ± 0.17 | 1171.8 ± 1.8
